Converted amounts (≈) assume the structure as drawn. Where two headings read alike, the source gives them in different places. Residues, ends and D or L forms follow the SMILES beside them.
Columns and labels:
Vibrio parahaemolyticus = experiment: Minimal inhibitory concentration (MIC); type: cell-based; conditions: Gram negative; bacteria 10^6 CFU/mL in 0.01 M PBS pH 7.6 mixed with equal volume of peptide in PBS, 30 °C 2 h, plated on LB agar 30 °C overnight; triplicate, repeated at least three times
Experimental: (§1) Seven bacteria including Vibrio parahaemolyticus, Vibrio fluvialis, Vibrio alginolyticus, Escherichia coli, Aeromonas hydrophila, Staphylococcus aureus and Streptococcus pyogenes were grown in LB medium at 30 °C and diluted to 10^6 CFU/mL in 0.01 M, pH 7.6 PBS. Peptides were diluted in PBS. The bacteria and diluted peptides were mixed in equal volumes, and then incubated at 30 °C for 2 h. […] Experiments were carried out in triplicate and repeated at least three times. Data are presented as mean ± standard deviation. GraphPad prism 6 was used to analyze the data with the statistical significance determined by one-way ANOVA and Student’s t test, and all experiments were carried out in triplicate.

Aeromonas hydrophila = type: cell-based
Experimental: as §1

Escherichia coli = type: cell-based
Experimental: as §1

Staphylococcus aureus = type: cell-based
Experimental: as §1

Streptococcus pyogenes = type: cell-based
Experimental: as §1

Vibrio alginolyticus = type: cell-based
Experimental: as §1

Vibrio fluvialis = type: cell-based
Experimental: as §1

[1] = test system: seven bacteria (V. parahaemolyticus, V. fluvialis, V. alginolyticus, E. coli, A. hydrophila, S. aureus, S. pyogenes); experiment: MIC summarised over the seven bacteria (GB, average MIC, fold change); type: cell-based; conditions: for decrease of antibacterial activity relative to L1: from MICs of Table 3, except for S.pyogenes; for GB: summary of the MICs over the seven bacteria, footnote b not given
Experimental: as §1

[2] = not given; remark: listed apart in the source
[3] = not given; remark: listed apart in the source
[4] = not given; remark: listed apart in the source
[5] = Gram negative, bacteria 10^6 CFU/mL in 0.01 M PBS pH 7.6 mixed with equal volume of peptide in PBS, 30 °C 2 h, plated on LB agar 30 °C overnight, triplicate, repeated at least three times
[6] = Gram positive, bacteria 10^6 CFU/mL in 0.01 M PBS pH 7.6 mixed with equal volume of peptide in PBS, 30 °C 2 h, plated on LB agar 30 °C overnight, triplicate, repeated at least three times

SMILES	MIC V. parahaemolyticus (Vibrio parahaemolyticus) [µg/mL]	MIC A. hydrophila (Aeromonas hydrophila; 2 h, pH 7.6) [µg/mL]	MIC E. coli (Escherichia coli; 2 h, pH 7.6) [µg/mL]	MIC S. aureus (Staphylococcus aureus; 2 h, pH 7.6) [µg/mL]	MIC S. pyogenes (Streptococcus pyogenes; 2 h, pH 7.6) [µg/mL]	MIC V. alginolyticus (Vibrio alginolyticus; 2 h, pH 7.6) [µg/mL]	MIC V. fluvialis (Vibrio fluvialis; 2 h, pH 7.6) [µg/mL]	decrease of antibacterial activity relative to L1 [1]	GB [1] [µg/mL]	MIC A. hydrophila (Aeromonas hydrophila; Gram negative (Table 2), bacteria 10^6 CFU/mL in 0.01 M PBS pH 7.6 mixed with equal volume of peptide in PBS, 30 °C 2 h, plated on LB agar 30 °C overnight, triplicate, repeated at least three times) [µg/mL]	MIC E. coli (Escherichia coli; [5]) [µg/mL]	MIC S. aureus (Staphylococcus aureus; [6]) [µg/mL]	MIC S. pyogenes (Streptococcus pyogenes; [6]) [µg/mL]	MIC V. alginolyticus (Vibrio alginolyticus; [5]) [µg/mL]	MIC V. fluvialis (Vibrio fluvialis; [5]) [µg/mL]	average MIC relative to the average MIC of L1 ([1]; over the seven bacteria)	β-turns content [%]	β-strand content [2] [%]	α-helical content [3] [%]	random coil content [4] [%]
CC[C@H](C)[C@H](NC(=O)[C@H](CC(N)=O)NC(=O)[C@H](CC(=O)O)NC(=O)[C@H](Cc1ccc(O)cc1)NC(=O)[C@@H](NC(=O)[C@H](CCCCN)NC(=O)[C@H](Cc1c[nH]cn1)NC(=O)[C@H](CC(C)C)NC(=O)[C@H](CC(C)C)NC(=O)[C@H](Cc1ccccc1)NC(=O)[C@H](CC(N)=O)NC(=O)[C@@H](N)C(C)C)[C@@H](C)CC)C(=O)N[C@@H](CCCNC(=N)N)C(=O)N[C@@H](Cc1ccc(O)cc1)C(=O)N[C@@H](CO)C(N)=O [M2] (H-VNFLLHKIYDNIRYS-NH2)	62.5 (≈ 33 µM)	15.6 (≈ 8.24 µM)	7.8 (≈ 4.12 µM)	> 250	62.5 (≈ 33 µM)	> 250	> 250	2- to 64 fold	69.0	–	–	–	–	–	–	–	–	–	–	–
CC[C@H](C)[C@H](NC(=O)[C@H](C)NC(=O)[C@H](CC(=O)O)NC(=O)[C@H](CCCNC(=N)N)NC(=O)[C@@H](NC(=O)[C@@H](N)CCCNC(=N)N)[C@@H](C)CC)C(=O)N[C@@H](C)C(=O)N[C@@H](Cc1c[nH]cn1)C(=O)NCC(=O)N[C@@H](Cc1ccc(O)cc1)C(=O)N[C@H](C(=O)N[C@H](C(=O)N[C@@H](CC(=O)O)C(=O)N[C@@H](CCCCN)C(=O)N[C@H](C(N)=O)C(C)C)C(C)C)[C@@H](C)CC [L10] (H-RIRDAIAHGYIVDKV-NH2)	250 (≈ 145 µM)	31.3 (≈ 18.1 µM)	> 250	> 250	125 (≈ 72.5 µM)	31.3 (≈ 18.1 µM)	125 (≈ 72.5 µM)	–	113.3	–	–	–	–	–	–	–	–	–	–	–
NC[C@H]1O[C@H](O[C@H]2[C@H](O)[C@@H](O[C@H]3O[C@H](CO)[C@@H](O)[C@H](N)[C@H]3O)[C@H](N)C[C@@H]2N)[C@H](O)[C@@H](O)[C@@H]1O [Kanamycin, reference compound]	1 (≈ 2.06 µM)	–	–	–	–	–	–	–	1.1	1 (≈ 2.06 µM)	2 (≈ 4.13 µM)	2 (≈ 4.13 µM)	1 (≈ 2.06 µM)	0.5 (≈ 1.03 µM)	1 (≈ 2.06 µM)	–	–	–	–	–
CC[C@H](C)[C@H](NC(=O)[C@H](Cc1c[nH]cn1)NC(=O)[C@H](C)NC(=O)[C@@H](NC(=O)[C@H](CC(N)=O)NC(=O)[C@H](Cc1c[nH]cn1)NC(=O)[C@H](CC(C)C)NC(=O)[C@H](C)NC(=O)CNC(=O)[C@H](Cc1ccc(O)cc1)NC(=O)[C@@H](N)Cc1ccc(O)cc1)[C@@H](C)O)C(=O)N[C@H](C(=O)N[C@@H](CC(C)C)C(=O)NCC(=O)N[C@@H](CCCNC(=N)N)C(N)=O)C(C)C [L12] (H-YYGALHNTAHIVLGR-NH2)	250 (≈ 148 µM)	125 (≈ 74.2 µM)	125 (≈ 74.2 µM)	> 250	125 (≈ 74.2 µM)	15.6 (≈ 9.26 µM)	250 (≈ 148 µM)	–	125.0	–	–	–	–	–	–	–	–	–	–	–
CC[C@H](C)[C@H](NC(=O)[C@H](CCCNC(=N)N)NC(=O)[C@H](CO)NC(=O)[C@H](CCC(=O)O)NC(=O)[C@@H](NC(=O)[C@@H](NC(=O)[C@H](CC(C)C)NC(=O)[C@H](CC(C)C)NC(=O)[C@H](CC(=O)O)NC(=O)[C@H](CCCNC(=N)N)NC(=O)[C@@H](NC(=O)[C@H](CCCNC(=N)N)NC(=O)[C@H](C)NC(=O)[C@@H](NC(=O)CN)C(C)C)[C@@H](C)CC)[C@@H](C)CC)[C@@H](C)CC)C(N)=O [L8] (H-GVARIRDLLIIESRI-NH2; N-terminus and C-terminus assumed)	250 (≈ 145 µM)	31.3 (≈ 18.2 µM)	> 250	250 (≈ 145 µM)	250 (≈ 145 µM)	250 (≈ 145 µM)	250 (≈ 145 µM)	–	185.8	–	–	–	–	–	–	–	–	–	–	–
CC[C@H](C)[C@H](NC(=O)[C@H](CCCCN)NC(=O)[C@H](Cc1c[nH]cn1)NC(=O)[C@H](CC(C)C)NC(=O)[C@H](CC(C)C)NC(=O)CNC(=O)[C@H](CC(N)=O)NC(=O)[C@@H](N)C(C)C)C(=O)N[C@@H](Cc1ccc(O)cc1)C(=O)NCC(=O)N[C@@H](CC(N)=O)C(=O)N[C@H](C(=O)N[C@@H](CCCNC(=N)N)C(=O)N[C@@H](Cc1ccc(O)cc1)C(=O)N[C@@H](CO)C(N)=O)[C@@H](C)CC [M1] (H-VNGLLHKIYGNIRYS-NH2)	62.5 (≈ 35.8 µM)	15.6 (≈ 8.93 µM)	15.6 (≈ 8.93 µM)	> 250	15.6 (≈ 8.93 µM)	250 (≈ 143 µM)	250 (≈ 143 µM)	2- to 64 fold	–	–	–	–	–	–	–	–	–	–	–	–
CC(C)C[C@H](NC(=O)[C@H](CCCCN)NC(=O)[C@H](CCC(N)=O)NC(=O)[C@@H](NC(=O)[C@H](C)NC(=O)[C@H](CCC(=O)O)NC(=O)CNC(=O)CN)C(C)C)C(=O)N[C@H](C(=O)N[C@@H](CCCNC(=N)N)C(=O)N[C@@H](CCC(=O)O)C(=O)N[C@H](C(=O)N[C@@H](CCCCN)C(=O)N[C@@H](CC(=O)O)C(=O)NCC(N)=O)C(C)C)C(C)C [L2] (H-GGEAVQKLVREVKDG-NH2; N-terminus and C-terminus assumed)	250 (≈ 158 µM)	250 (≈ 158 µM)	> 250	> 250	250 (≈ 158 µM)	125 (≈ 78.9 µM)	125 (≈ 78.9 µM)	–	205.1	–	–	–	–	–	–	tenfold	–	–	–	–
CC[C@H](C)[C@H](NC(=O)[C@H](CCCCN)NC(=O)[C@H](Cc1c[nH]cn1)NC(=O)[C@H](CC(C)C)NC(=O)[C@H](CC(C)C)NC(=O)[C@H](Cc1ccccc1)NC(=O)[C@H](CC(N)=O)NC(=O)[C@@H](N)C(C)C)C(=O)N[C@@H](Cc1ccc(O)cc1)C(=O)NCC(=O)N[C@@H](CC(N)=O)C(=O)N[C@H](C(=O)N[C@@H](CCCNC(=N)N)C(=O)N[C@@H](Cc1ccc(O)cc1)C(=O)N[C@@H](CO)C(N)=O)[C@@H](C)CC [L1] (H-VNFLLHKIYGNIRYS-NH2)	31.2 (≈ 17 µM)	3.9 (≈ 2.12 µM)	3.9 (≈ 2.12 µM)	62.5 (≈ 34 µM)	62.5 (≈ 34 µM)	3.9 (≈ 2.12 µM)	62.5 (≈ 34 µM)	–	–	–	–	–	–	–	–	–	24	11.2	34.6	33.4
CC[C@H](C)[C@H](NC(=O)[C@H](CCCCN)NC(=O)[C@H](Cc1c[nH]cn1)NC(=O)[C@H](CC(C)C)NC(=O)[C@H](CC(C)C)NC(=O)[C@H](Cc1ccccc1)NC(=O)[C@H](CC(N)=O)NC(=O)[C@@H](N)C(C)C)C(=O)N[C@@H](Cc1ccc(O)cc1)C(=O)NCC(=O)N[C@@H](CC(N)=O)C(=O)N[C@H](C(=O)N[C@@H](CCCNC(=N)N)C(=O)N[C@@H](CC(=O)O)C(=O)N[C@@H](CO)C(N)=O)[C@@H](C)CC [M3] (H-VNFLLHKIYGNIRDS-NH2)	31.2 (≈ 17.4 µM)	3.9 (≈ 2.18 µM)	3.9 (≈ 2.18 µM)	62.5 (≈ 35 µM)	62.5 (≈ 35 µM)	3.9 (≈ 2.18 µM)	62.5 (≈ 35 µM)	no change	14.2	–	–	–	–	–	–	–	–	–	–	–
